This note sets out measurements from patent publication US20210215710A1, “METHODS FOR USE OF CDX2 AS A BIOMARKER TO GUIDE USE OF AUTOPHAGY INHIBITORS IN OVARIAN CANCER” (UNIVERSITY HEALTH NETWORK, priority 2019, published 2021).

Test [1] deals with CDX2(+) derived cell lines D4 and B2. The experiment in a line: Long-term nutritional deprivation, cellular survival of cell colonies in vitro. The test is classed as cell-based.
From the text: FIG. 6A depicts bar graphs that illustrate the long-term effect of nutritional deprivation on cellular survival in CDX2(−) and CDX2(+) cell colonies in vitro and the effect of treatment with autophagy inhibitors. […] P<0.001.
The subject of test [2] is CDX2(+) ovarian tumours in mice. Description: Survival of mice with ovarian tumours treated with chloroquine. The class given is in vivo, mouse. Conditions: chloroquine 10 mg/kg 3 times a week, initiated 30 days after delivery of tumor cells. The source says: For all experiments aged females (9-10 month) were used, as these represent targeted patient population (e.g., peri-menopausal women). Mice were sacrificed when ascites formed.

Test [3] deals with OVCA429 CDX2. Description: cells. Particulars: Homo sapiens, OVCA429, 48 h, read-out: 48 h IC50 CQ in adherent culture. An excerpt:
(§1) FIG. 7 depicts bar graphs that illustrate the results of an OVCA429 soft agar assay. […] This confirms the effect in human high grade serous ovarian cancer cells. […] CDX2(−) at left. […] P<0.005.

Test [4] has as its system OVCA429 GAL (CDX2(−)). Description: cells. Particulars: Homo sapiens, OVCA429, 48 h, read-out: 48 h IC50 CQ in adherent culture.
From the text: as §1

In test [5] the test system is CDX2(+) ovarian cancer cells. Description: Hanging drop assay under starvation conditions. The class given is cell-based, mouse. An excerpt: FIG. 3A depicts a CDX2(−) parental control. FIGS. 3B and 3C depict CDX2(+) derived cell lines. The mouse ovarian cancer cell line MOSEC5 that is CDX2(−) was genetically modified to create CDX2(+) derived cell lines. Cells were placed in a “hanging drop” assay under starvation conditions.

In test [6] the test system is Cdx2-expressing cells. Description: Expression of autophagy genes after chloroquine in Cdx2-expressing cells. The test is classed as cell-based.

pIC50: −log10 of the molar value.

As for `Cn1cnc(N)c2ncnc1-2` [3-methyladenine], the “survival of CDX2(+) cells after long-term stress” value in test [1] is given as “reverse this survival”.

As for `CCN(CC)CCCC(C)Nc1ccnc2cc(Cl)ccc12` (stereo not shown) [chloroquine], the survival of mice entry in test [2] was “prolongs survival of mice with ovarian tumours”. Further, the survival of mice entry in test [2] (listed as Chloroquine) is recorded as “improved survival in CDX2(+) mice”. Moreover, the negative logarithm of the IC50 (pIC50) in test [3] is 5.03. The pIC50 in test [4] is 4.94. In test [5], the cancer cell survival result is reported as “reduce cancer cell survival” and the inhibition of autophagy result is “did inhibit autophagy”. Moreover, in test [6], the “LAM P1 gene expression” value was “down-regulated”, the NPC gene expression result was “significantly up-regulated”, the SQSTM1 gene expression entry was “significantly up-regulated” and the ULK2 gene expression result is on record as “down-regulated”. Further, the WIPI1 gene expression result in test [6] was “significantly up-regulated”. In addition, in test [1], the “survival of CDX2(+) cells after long-term stress” value is “reverse this survival”.
